Measurements as given in ChEMBL document CHEMBL4613211, “Aurone: A biologically attractive scaffold as anticancer agent” (Eur J Med Chem, 2019).

Legend:
Type in all cases: functional
[1] = test system: CCRF-CEM; experiment: Growth inhibition of human CCRF-CEM cells at 10 uM after 48 hrs by sulforhodamine B assay relative to control; details: read-out: GI
[2] = test system: HL-60(TB); experiment: Growth inhibition of human HL-60(TB) cells at 10 uM after 48 hrs by sulforhodamine B assay relative to control; details: HL-60, 48 h, read-out: GI
[3] = test system: K562; experiment: Growth inhibition of human K562 cells at 10 uM after 48 hrs by sulforhodamine B assay relative to control; details: K562, 48 h, read-out: GI
[4] = test system: RPMI-8226; experiment: Growth inhibition of human RPMI8226 cells at 10 uM after 48 hrs by sulforhodamine B assay relative to control; details: RPMI-8226, 48 h, read-out: GI
[5] = test system: SR; experiment: Growth inhibition of human SR cells at 10 uM after 48 hrs by sulforhodamine B assay relative to control; details: read-out: GI
[6] = test system: A549; experiment: Growth inhibition of human A549/ATCC cells at 10 uM after 48 hrs by sulforhodamine B assay relative to control; details: A549, 48 h, read-out: GI
[7] = test system: HOP-62; experiment: Growth inhibition of human HOP62 cells at 10 uM after 48 hrs by sulforhodamine B assay relative to control; details: HOP-62, 48 h, read-out: GI
[8] = test system: HOP-92; experiment: Growth inhibition of human HOP92 cells at 10 uM after 48 hrs by sulforhodamine B assay relative to control; details: HOP-92, 48 h, read-out: GI
[9] = test system: NCI-H460; experiment: Growth inhibition of human NCI-H460 cells at 10 uM after 48 hrs by sulforhodamine B assay relative to control; details: NCI-H460, 48 h, read-out: GI
[10] = test system: NCI-H522; experiment: Growth inhibition of human NCI-H522 cells at 10 uM after 48 hrs by sulforhodamine B assay relative to control; details: NCI-H522, 48 h, read-out: GI
[11] = test system: COLO 205; experiment: Growth inhibition of human COLO205 cells at 10 uM after 48 hrs by sulforhodamine B assay relative to control; details: COLO 205, 48 h, read-out: GI
[12] = test system: HCT-116; experiment: Growth inhibition of human HCT116 cells at 10 uM after 48 hrs by sulforhodamine B assay relative to control; details: HCT-116, 48 h, read-out: GI
[13] = test system: HCT-15; experiment: Growth inhibition of human HCT15 cells at 10 uM after 48 hrs by sulforhodamine B assay relative to control; details: HCT-15, 48 h, read-out: GI
[14] = test system: HT-29; experiment: Growth inhibition of human HT-29 cells at 10 uM after 48 hrs by sulforhodamine B assay relative to control; details: HT-29, 48 h, read-out: GI
[15] = test system: SF-268; experiment: Growth inhibition of human SF268 cells at 10 uM after 48 hrs by sulforhodamine B assay relative to control; details: SF-268, 48 h, read-out: GI
[16] = test system: SF-295; experiment: Growth inhibition of human SF295 cells at 10 uM after 48 hrs by sulforhodamine B assay relative to control; details: SF-295, 48 h, read-out: GI
[17] = test system: SNB-75; experiment: Growth inhibition of human SNB75 cells at 10 uM after 48 hrs by sulforhodamine B assay relative to control; details: SNB-75, 48 h, read-out: GI
[18] = test system: LOX IMVI; experiment: Growth inhibition of human LOXIMVI cells at 10 uM after 48 hrs by sulforhodamine B assay relative to control; details: read-out: GI
[19] = test system: Malme-3M; experiment: Growth inhibition of human MALME-3M cells at 10 uM after 48 hrs by sulforhodamine B assay relative to control; details: read-out: GI
[20] = test system: M14; experiment: Growth inhibition of human M14 cells at 10 uM after 48 hrs by sulforhodamine B assay relative to control; details: M14, 48 h, read-out: GI
[21] = test system: MDA-MB-435; experiment: Growth inhibition of human MDA-MB-435 cells at 10 uM after 48 hrs by sulforhodamine B assay relative to control; details: MDA-MB-435, 48 h, read-out: GI
[22] = test system: SK-MEL-2; experiment: Growth inhibition of human SK-MEL-2 cells at 10 uM after 48 hrs by sulforhodamine B assay relative to control; details: SK-MEL-2, 48 h, read-out: GI
[23] = test system: SK-MEL-28; experiment: Growth inhibition of human SK-MEL-28 cells at 10 uM after 48 hrs by sulforhodamine B assay relative to control; details: SK-MEL-28, 48 h, read-out: GI
[24] = test system: SK-MEL-5; experiment: Growth inhibition of human SK-MEL-5 cells at 10 uM after 48 hrs by sulforhodamine B assay relative to control; details: SK-MEL-5, 48 h, read-out: GI
[25] = test system: UACC-257; experiment: Growth inhibition of human UACC257 cells at 10 uM after 48 hrs by sulforhodamine B assay relative to control; details: UACC-257, 48 h, read-out: GI
[26] = test system: IGROV-1; experiment: Growth inhibition of human IGROV1 cells at 10 uM after 48 hrs by sulforhodamine B assay relative to control; details: IGROV-1, 48 h, read-out: GI
[27] = test system: OVCAR-5; experiment: Growth inhibition of human OVCAR5 cells at 10 uM after 48 hrs by sulforhodamine B assay relative to control; details: OVCAR-5, 48 h, read-out: GI
[28] = test system: OVCAR-8; experiment: Growth inhibition of human OVCAR8 cells at 10 uM after 48 hrs by sulforhodamine B assay relative to control; details: OVCAR-8, 48 h, read-out: GI
[29] = test system: SK-OV-3; experiment: Growth inhibition of human SKOV3 cells at 10 uM after 48 hrs by sulforhodamine B assay relative to control; details: SK-OV-3, 48 h, read-out: GI
[30] = test system: 786-0; experiment: Growth inhibition of human 786-0 cells at 10 uM after 48 hrs by sulforhodamine B assay relative to control; details: 786-0, 48 h, read-out: GI
[31] = test system: A498; experiment: Growth inhibition of human A498 cells at 10 uM after 48 hrs by sulforhodamine B assay relative to control; details: A498, 48 h, read-out: GI
[32] = test system: RXF 393; experiment: Growth inhibition of human RXF393 cells at 10 uM after 48 hrs by sulforhodamine B assay relative to control; details: RXF 393, 48 h, read-out: GI
[33] = test system: SN12C; experiment: Growth inhibition of human SN12C cells at 10 uM after 48 hrs by sulforhodamine B assay relative to control; details: read-out: GI
[34] = test system: PC-3; experiment: Growth inhibition of human PC3 cells at 10 uM after 48 hrs by sulforhodamine B assay relative to control; details: PC-3, 48 h, read-out: GI
[35] = test system: BT-549; experiment: Growth inhibition of human BT549 cells at 10 uM after 48 hrs by sulforhodamine B assay relative to control; details: BT-549, 48 h, read-out: GI
[36] = test system: T47D; experiment: Growth inhibition of human T47D cells at 10 uM after 48 hrs by sulforhodamine B assay relative to control; details: read-out: GI
[37] = test system: MDA-MB-468; experiment: Growth inhibition of human MDA-MB-468 cells at 10 uM after 48 hrs by sulforhodamine B assay relative to control; details: MDA-MB-468, 48 h, read-out: GI

SMILES	inhibition of growth at 10 µM [1] [%]	inhibition of growth at 10 µM [2] [%]	inhibition of growth at 10 µM [3] [%]	inhibition of growth at 10 µM [4] [%]	inhibition of growth at 10 µM [5] [%]	inhibition of growth at 10 µM [6] [%]	inhibition of growth at 10 µM [7] [%]	inhibition of growth at 10 µM [8] [%]	inhibition of growth at 10 µM [9] [%]	inhibition of growth at 10 µM [10] [%]	inhibition of growth at 10 µM [11] [%]	inhibition of growth at 10 µM [12] [%]	inhibition of growth at 10 µM [13] [%]	inhibition of growth at 10 µM [14] [%]	inhibition of growth at 10 µM [15] [%]	inhibition of growth at 10 µM [16] [%]	inhibition of growth at 10 µM [17] [%]	inhibition of growth at 10 µM [18] [%]	inhibition of growth at 10 µM [19] [%]	inhibition of growth at 10 µM [20] [%]	further results
COc1ccc(/C=C2\Oc3c(c(OC)c4ccoc4c3CN3CCOCC3)C2=O)cc1	56.4 to 65.2	56.4 to 65.2	56.4 to 65.2	56.4 to 65.2	56.4 to 65.2	56.4 to 65.2	56.4 to 65.2	56.4 to 65.2	56.4 to 65.2	56.4 to 65.2	56.4 to 65.2	56.4 to 65.2	56.4 to 65.2	56.4 to 65.2	56.4 to 65.2	56.4 to 65.2	56.4 to 65.2	56.4 to 65.2	56.4 to 65.2	56.4 to 65.2	inhibition of growth at 10 µM [21]: 56.4 to 65.2%; inhibition of growth at 10 µM [22]: 56.4 to 65.2%; inhibition of growth at 10 µM [23]: 56.4 to 65.2%; inhibition of growth at 10 µM [24]: 56.4 to 65.2%; inhibition of growth at 10 µM [25]: 56.4 to 65.2%; inhibition of growth at 10 µM [26]: 56.4 to 65.2%; inhibition of growth at 10 µM [27]: 56.4 to 65.2%; inhibition of growth at 10 µM [28]: 56.4 to 65.2%; inhibition of growth at 10 µM [29]: 56.4 to 65.2%; inhibition of growth at 10 µM [30]: 56.4 to 65.2%; inhibition of growth at 10 µM [31]: 56.4 to 65.2%; inhibition of growth at 10 µM [32]: 56.4 to 65.2%; inhibition of growth at 10 µM [33]: 56.4 to 65.2%; inhibition of growth at 10 µM [34]: 56.4 to 65.2%; inhibition of growth at 10 µM [35]: 56.4 to 65.2%; inhibition of growth at 10 µM [36]: 56.4 to 65.2%; inhibition of growth at 10 µM [37]: 56.4 to 65.2%
COc1ccc2c(c1)O/C(=C\c1ccc(OCC(=O)Nc3ccccc3)c(OC)c1)C2=O	18.9 to 27.1	18.9 to 27.1	18.9 to 27.1	18.9 to 27.1	18.9 to 27.1	18.9 to 27.1	18.9 to 27.1	18.9 to 27.1	18.9 to 27.1	18.9 to 27.1	18.9 to 27.1	18.9 to 27.1	18.9 to 27.1	18.9 to 27.1	18.9 to 27.1	18.9 to 27.1	18.9 to 27.1	18.9 to 27.1	18.9 to 27.1	18.9 to 27.1	inhibition of growth at 10 µM [21]: 18.9 to 27.1%; inhibition of growth at 10 µM [22]: 18.9 to 27.1%; inhibition of growth at 10 µM [23]: 18.9 to 27.1%; inhibition of growth at 10 µM [24]: 18.9 to 27.1%; inhibition of growth at 10 µM [25]: 18.9 to 27.1%; inhibition of growth at 10 µM [26]: 18.9 to 27.1%; inhibition of growth at 10 µM [27]: 18.9 to 27.1%; inhibition of growth at 10 µM [28]: 18.9 to 27.1%; inhibition of growth at 10 µM [29]: 18.9 to 27.1%; inhibition of growth at 10 µM [30]: 18.9 to 27.1%; inhibition of growth at 10 µM [31]: 18.9 to 27.1%; inhibition of growth at 10 µM [32]: 18.9 to 27.1%; inhibition of growth at 10 µM [33]: 18.9 to 27.1%; inhibition of growth at 10 µM [34]: 18.9 to 27.1%; inhibition of growth at 10 µM [35]: 18.9 to 27.1%; inhibition of growth at 10 µM [36]: 18.9 to 27.1%; inhibition of growth at 10 µM [37]: 18.9 to 27.1%
COc1cc(/C=C2\Oc3cc4occc4c(OC)c3C2=O)ccc1OCC(=O)Nc1ccccc1	67.1 to 79.6	67.1 to 79.6	67.1 to 79.6	67.1 to 79.6	67.1 to 79.6	67.1 to 79.6	67.1 to 79.6	67.1 to 79.6	67.1 to 79.6	67.1 to 79.6	67.1 to 79.6	67.1 to 79.6	67.1 to 79.6	67.1 to 79.6	67.1 to 79.6	67.1 to 79.6	67.1 to 79.6	67.1 to 79.6	67.1 to 79.6	67.1 to 79.6	inhibition of growth at 10 µM [21]: 67.1 to 79.6%; inhibition of growth at 10 µM [22]: 67.1 to 79.6%; inhibition of growth at 10 µM [23]: 67.1 to 79.6%; inhibition of growth at 10 µM [24]: 67.1 to 79.6%; inhibition of growth at 10 µM [25]: 67.1 to 79.6%; inhibition of growth at 10 µM [26]: 67.1 to 79.6%; inhibition of growth at 10 µM [27]: 67.1 to 79.6%; inhibition of growth at 10 µM [28]: 67.1 to 79.6%; inhibition of growth at 10 µM [29]: 67.1 to 79.6%; inhibition of growth at 10 µM [30]: 67.1 to 79.6%; inhibition of growth at 10 µM [31]: 67.1 to 79.6%; inhibition of growth at 10 µM [32]: 67.1 to 79.6%; inhibition of growth at 10 µM [33]: 67.1 to 79.6%; inhibition of growth at 10 µM [34]: 67.1 to 79.6%; inhibition of growth at 10 µM [35]: 67.1 to 79.6%; inhibition of growth at 10 µM [36]: 67.1 to 79.6%; inhibition of growth at 10 µM [37]: 67.1 to 79.6%
